According to paper PMC10893060, “Synthesis and Study of the Structure–Activity Relationship of Antiproliferative N-Substituted Isosteviol-Based 1,3-Aminoalcohols” (Pharmaceuticals, 2024):

Key:
[1] = system: breast carcinoma MDA-MB-231; set-up: method as in PMID 26101532; conditions: MDA-MB-231, third of three values, order assumed; cited from earlier work
MDA-MB-231 = assay: MTT antiproliferative assay, MDA-MB-231; format: cell-based; conditions: Homo sapiens, 72 h, no IC50 calculated when less than 50% inhibition at 10 μM
Text: (§1) The antiproliferative activities of the prepared diterpene analogues were studied using an MTT assay on a panel of human adherent cancer lines, including cells from cervical (HeLa), breast (MDA-MB-231, MCF-7), and ovary cancers (A2780), as given in Figure 1 and Table S1 in the Supplementary Materials. A non-malignant fibroblast cell line (NIH/3T3) was also utilised to obtain preliminary information on the cancer selectivity of the tested compounds. Based on the obtained activities, some conclusions could be drawn regarding the structure–activity relationships (SARs). Since neither the key intermediate benzyl ester of hydroxylaldehyde 4 nor the N-Boc protected aminoalcohols (6, 7, 11, 12) or even compound 8 with a free carboxylic function exerted remarkable antiproliferative effects (except for 12 against A2780 ovarian cancer cells), we could conclude that the simultaneous presence of the ester function and the basic secondary amino function were essential for the inhibition of cell growth. […] All active molecules inhibited considerably the proliferation of non-malignant cells, which meant that most currently presented agents were not optimal for further investigations of their anticancer properties.
(§2) The growth-inhibitory effects of the isosteviol-based 1,3-aminoalcohols were determined by a standard MTT (3-(4,5-dimethylthiazol-2-yl)-2,5-diphenyltetrazolium bromide) assay on a panel containing five cell lines, including Hela (cervical cancer), MDA-MB-231 and MCF-7 (breast cancers), and A2780 ovarian cancer cells. All cell lines were purchased from the European Collection of Cell Cultures (Salisbury, UK). The cells were maintained in a minimal essential medium supplemented with 10% foetal bovine serum, 1% non-essential amino acids, and 1% penicillin–streptomycin at 37 °C in a humidified atmosphere containing 5% CO2. All media and supplements were obtained from Lonza Group Ltd. (Basel, Switzerland). Cancer cells were seeded into 96-well plates (5000 cells/well); after overnight incubation, the test compound was added in two different concentrations (10 µM and 30 µM) and incubated for another 72 h under cell-culturing conditions. In the next step, 20 μL of 5 mg/mL of an MTT solution was added to each well and incubated for a further 4 h. The medium was removed and the precipitated formazan crystals were dissolved in DMSO after 60 min of shaking at 37 °C. As a final step, the absorbance was measured at 545 nm by using a microplate reader. Untreated cells were included as controls. […] Two independent experiments were performed with five wells for each condition. Calculations were performed using the GraphPad Prism 10.0 software (GraphPad Software Inc., San Diego, CA, USA).

HeLa = assay: MTT antiproliferative assay, HeLa; format: cell-based; conditions: Homo sapiens, 72 h, no IC50 calculated when less than 50% inhibition at 10 μM
Text: as §1, §2

MCF-7 = assay: MTT antiproliferative assay, MCF-7; format: cell-based; conditions: Homo sapiens, MCF7, 72 h, no IC50 calculated when less than 50% inhibition at 10 μM
Text: as §1, §2

A2780 = assay: MTT antiproliferative assay, A2780; format: cell-based; conditions: Homo sapiens, 72 h, no IC50 calculated when less than 50% inhibition at 10 μM
Text: as §1, §2

NIH/3T3 = assay: MTT assay on non-malignant fibroblasts; format: cell-based; conditions: Mus musculus, NIH3T3, 72 h, no IC50 calculated when less than 50% inhibition at 10 μM
Text: as §1, §2

Row | Structure (SMILES) | IC50 [1] | melting point | IC50 (MDA-MB-231) | IC50 (HeLa) | IC50 (MCF-7) | IC50 (A2780) | IC50 (NIH/3T3)
1 | COc1cccc2c1C(=O)c1c(O)c3c(c(O)c1C2=O)C[C@@](O)(C(=O)CO)C[C@@H]3O[C@H]1C[C@H](N)[C@H](O)[C@H](C)O1 [Adriamycin] | 2.26 µM | – | – | – | – | – | –
2 | C[C@]12CCC3[C@](CC[C@@H]4[C@](C)(C(=O)O)CCC[C@@]34C)(C1)[C@H](CNCc1ccc(F)cc1)[C@H]2O (stereo partly drawn) [Compound 8, (4R,4aS,6aS,7R,8R,9S,11bS)-7-(((4-Fluorobenzyl)amino)methyl)-8-hydroxy-4,9,11b-trimethyltetradecahydro-6a,9-methanocyclohepta[a]naphthalene-4-carboxylic Acid] | – | 149 to 150 °C | > 10 µM | > 10 µM | > 10 µM | > 10 µM | > 10 µM
3 | C#CCOC(=O)[C@]1(C)CCC[C@@]2(C)C3CC[C@@]4(C)C[C@]3(CC[C@H]12)[C@H](CNCc1ccc(F)cc1)[C@H]4O (stereo partly drawn) [Compound 14, (4R,4aS,6aS,7R,8R,9S,11bS)-Prop-2-yn-1-yl 7-(((4-fluorobenzyl)amino)methyl)-8-hydroxy-4,9,11b-trimethyltetradecahydro-6a,9-methanocyclohepta[a]naphthalene-4-carboxylate] | – | 104 to 105 °C | 2.23 µM | 2.7 µM | 1.54 µM | 1.36 µM | 5.92 µM
4 | CC[C@H](NC[C@@H]1[C@@H](O)[C@@]2(C)CCC3[C@]1(CC[C@@H]1[C@](C)(C(=O)OC)CCC[C@@]31C)C2)c1ccccc1 (stereo partly drawn) [Compound 25, (4R,4aS,6aS,7R,8R,9S,11bS)-Methyl 8-hydroxy-4,9,11b-trimethyl-7-((((S)-1-phenylpropyl)amino)methyl)tetradecahydro-6a,9-methanocyclohepta[a]naphthalene-4-carboxylate] | – | – | 6.53 µM | 4.43 µM | 4.17 µM | 4.83 µM | 3.98 µM
5 | COC(=O)[C@]1(C)CCC[C@@]2(C)C3CC[C@@]4(C)C[C@]3(CC[C@H]12)[C@H](CN[C@@H](C)c1ccc2ccccc2c1)[C@H]4O (stereo partly drawn) [Compound 26, (4R,4aS,6aS,7R,8R,9S,11bS)-Methyl 8-hydroxy-4,9,11b-trimethyl-7-((((S)-1-(naphthalen-2-yl)ethyl)amino)methyl)tetradecahydro-6a,9-methanocyclohepta[a]naphthalene-4-carboxylate] | – | – | 6.07 µM | 4.33 µM | 3.67 µM | 4.11 µM | 3.12 µM
6 | COC(=O)[C@]1(C)CCC[C@@]2(C)C3CC[C@@]4(C)C[C@]3(CC[C@H]12)[C@H](CN[C@H](C)c1ccc2ccccc2c1)[C@H]4O (stereo partly drawn) [Compound 27, (4R,4aS,6aS,7R,8R,9S,11bS)-Methyl 8-hydroxy-4,9,11b-trimethyl-7-((((R)-1-(naphthalen-2-yl)ethyl)amino)methyl)tetradecahydro-6a,9-methanocyclohepta[a]naphthalene-4-carboxylate] | – | – | 4.11 µM | 3.4 µM | 2.43 µM | 3.26 µM | 5.03 µM
7 | COC(=O)[C@]1(C)CCC[C@@]2(C)C3CC[C@@]4(C)C[C@]3(CC[C@H]12)[C@H](CNCCCn1ccnc1)[C@H]4O (stereo partly drawn) [Compound 28, (4R,4aS,6aS,7R,8R,9S,11bS)-Methyl 7-(((3-(1H-imidazol-1-yl)propyl)amino)methyl)-8-hydroxy-4,9,11b-trimethyltetradecahydro-6a,9-methanocyclohepta[a]naphthalene-4-carboxylate] | – | – | 4.34 µM | 3.72 µM | 3.82 µM | 4.42 µM | 1.55 µM
